Results reported in publication PMC9944328 (Nature Communications, 2023).
“And” between values parts separate entries of the source, which are not always exact repeats. Identical values can stand only once.

Target: SSTR2 (Homo sapiens, UniProt P30874)
Assay: NanoBiT β-arrestin 1 recruitment assay, HEK293 (SSTR2 wild-type);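 as to Best-fit Bottom: percent of maximal wild-type SSTR2 response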;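 as to Best-fit Top: percent of maximal wild-type SSTR2 response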;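 as to Bottom (best-fit): percent of maximal wild-type response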;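 as to Span (best-fit value): percent of maximal wild-type response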;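 as to Top (best-fit value): percent of maximal wild-type response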
Type: cell-based
Design: Human full-length SSTR wild-type and mutant vectors were C-terminally fused; expressed in transfected cells; host or cells: HEK293; Best-fit values Bottom / Best-fit values Top / Best-fit values Span / Best-fit Bottom / Best-fit Top / Best-fit Span: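 percent of maximal wild-type SSTR2 response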
Conditions: for β-arrestin recruitment: compared with octreotide, Fig. 1c
Method: The NanoBiT β-arrestin 1 recruitment assays were carried out according to the method described previously. […] Human full-length SSTR wild-type and mutant vectors were C-terminally fused with a 15-amino acid flexible linker and the small fragment (SmBiT). HEK293 cells were seeded into six-well microplates at a density of 1.0 × 10^6 cells/well and cultured for 24 h at 37 °C with 5% CO2. After that, cells were co-transfected with pcDNA3.1+ vectors encoding SSTR wild-type or mutants and human β-arrestin 1. After transfecting for 24 h, the transfected cells were suspended and seeded into white 96-well plates, and then cultured at 37 °C overnight. After that the medium in each well was exchanged for 90 μl of 0.01% bovine serum albumin containing 20 μl of 50 μM coelenterazine h (Carbosynth) diluted in the HBSS assay buffer and incubated for 40 min at room temperature. Then, ligands diluted in the assay buffer was added to each well and the luminescence intensity was measured using the Synergy H1 microplate reader and detected at room temperature in a time period. All data presented are means of at least three independent experiments.

[1] = SSTR2-WT control of I284A-1, T194A-1, I195A-3, L99A-3, Q102A-1
[2] = SSTR2-WT control of I284A-2/-3, T194A-2/-3, L99A-1/-2, Q102A-3

SSTR2, sequence (P30874 whole entry): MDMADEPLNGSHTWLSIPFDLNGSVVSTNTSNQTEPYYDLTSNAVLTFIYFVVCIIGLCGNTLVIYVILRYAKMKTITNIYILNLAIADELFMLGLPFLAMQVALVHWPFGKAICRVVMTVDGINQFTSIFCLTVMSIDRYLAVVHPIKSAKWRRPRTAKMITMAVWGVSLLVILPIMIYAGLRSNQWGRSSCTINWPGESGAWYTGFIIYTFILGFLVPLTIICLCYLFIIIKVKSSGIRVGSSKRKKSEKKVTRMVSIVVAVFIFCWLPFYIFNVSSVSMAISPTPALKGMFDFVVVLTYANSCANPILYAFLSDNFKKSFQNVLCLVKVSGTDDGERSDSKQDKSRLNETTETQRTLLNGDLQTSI
SSTR2, sequence (P49407 whole entry partner): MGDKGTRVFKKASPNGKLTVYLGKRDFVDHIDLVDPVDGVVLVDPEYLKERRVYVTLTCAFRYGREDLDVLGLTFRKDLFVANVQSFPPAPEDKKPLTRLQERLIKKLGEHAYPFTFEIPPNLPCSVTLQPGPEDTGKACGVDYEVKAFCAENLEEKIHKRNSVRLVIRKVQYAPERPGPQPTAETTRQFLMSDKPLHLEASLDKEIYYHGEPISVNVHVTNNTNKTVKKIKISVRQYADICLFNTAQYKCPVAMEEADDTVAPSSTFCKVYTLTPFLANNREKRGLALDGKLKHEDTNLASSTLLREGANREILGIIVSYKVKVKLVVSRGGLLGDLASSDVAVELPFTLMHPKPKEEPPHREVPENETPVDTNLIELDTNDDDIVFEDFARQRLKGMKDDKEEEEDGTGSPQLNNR

## N#Cc1cccc(-c2ccc3ncc(-c4cc(F)cc(F)c4)c(N4CCC(N)CC4)c3c2)c1O [paltusotine]
Best-fit EC50, SSTR2-WT control of I284A-1, T194A-1, I195A-3, L99A-3
  EC50: 420 nM
Best-fit EC50, SSTR2-WT control of I284A-2/-3, T194A-2/-3, L99A-1/-2
  EC50: 455 nM
Best-fit EC50, SSTR2-WT-1 control of I195A-1
  EC50: 306 nM
Best-fit EC50, SSTR2-WT-1 control of Y50A-1
  EC50: 216 nM
Best-fit EC50, SSTR2-WT-2 control of I195A-2
  EC50: 295 nM
Best-fit EC50, SSTR2-WT-2 control of Y50A-2
  EC50: 272 nM
Best-fit EC50, SSTR2-WT-3 control of Y50A-3
  EC50: 306 nM
EC50 (best-fit value), SSTR2-WT, run WT-1
  EC50: 455 nM and 420 nM and 141 nM and 1270 nM and 292 nM
EC50 (best-fit value), SSTR2-WT, run WT-2
  EC50: 455 nM and 399 nM and 131 nM and 141 nM and 613 nM
EC50 (best-fit value), SSTR2-WT, run WT-3
  EC50: 726 nM and 216 nM and 292 nM and 131 nM and 538 nM and 455 nM
EC50 (best-fit), WT-1 (D122A set)
  EC50: 420 nM
EC50 (best-fit), WT-1 (F127A set)
  EC50: 307 nM
EC50 (best-fit), WT-1 (I130A set)
  EC50: 292 nM
EC50 (best-fit), WT-1 (Q102A set)
  EC50: 420 nM
EC50 (best-fit), WT-1 (Q126A set)
  EC50: 306 nM
EC50 (best-fit), WT-1 (V103A set)
  EC50: 306 nM
EC50 (best-fit), WT-2 (D122A set)
  EC50: 399 nM
EC50 (best-fit), WT-2 (F127A set)
  EC50: 272 nM
EC50 (best-fit), WT-2 (I130A set)
  EC50: 141 nM
EC50 (best-fit), WT-2 (Q102A set)
  EC50: 339 nM
EC50 (best-fit), WT-2 (Q126A set)
  EC50: 455 nM
EC50 (best-fit), WT-2 (V103A set)
  EC50: 295 nM
EC50 (best-fit), WT-3 (D122A set)
  EC50: 455 nM
EC50 (best-fit), WT-3 (F127A set)
  EC50: 292 nM
EC50 (best-fit), WT-3 (Q102A set)
  EC50: 455 nM
EC50 (best-fit), WT-3 (Q126A set)
  EC50: 455 nM
EC50 (best-fit), WT-3 (V103A set)
  EC50: 306 nM
EC50 (β-arrestin1 recruitment), best-fit, WT-1 (SSTR2-WT set up beside each mutant)
  EC50: 420 nM and 455 nM and 529 nM
EC50 (β-arrestin1 recruitment), best-fit, WT-2 (SSTR2-WT set up beside each mutant)
  EC50: 455 nM and 420 nM and 613 nM
EC50 (β-arrestin1 recruitment), best-fit, WT-3 (SSTR2-WT set up beside each mutant)
  EC50: 420 nM and 538 nM
EC50, β-arrestin recruitment, SSTR2 WT, n=6
  EC50: 406 ± 5.62 nM
HEK293
  Emax: 100%
SSTR2-WT control of I284A-1, T194A-1, I195A-3, L99A-3
  Best-fit Span: 106.9
[1]
  Best-fit Bottom: 1.007
  Best-fit LogEC50: -6.376
  Best-fit Top: 107.9
SSTR2-WT control of I284A-2/-3, T194A-2/-3, L99A-1/-2
  Best-fit Span: 106.4
[2]
  Best-fit Bottom: 0.9805
  Best-fit LogEC50: -6.342
  Best-fit Top: 107.4
SSTR2-WT-1 control of I195A-1
  Best-fit Bottom: 0.5008
  Best-fit LogEC50: -6.514
  Best-fit Span: 104.2
  Best-fit Top: 104.7
SSTR2-WT-1 control of Y50A-1
  Best-fit Bottom: -1.342
  Best-fit LogEC50: -6.666
  Best-fit Span: 105.2
  Best-fit Top: 103.8
SSTR2-WT-2 control of I195A-2
  Best-fit Bottom: 0.4349
  Best-fit LogEC50: -6.531
  Best-fit Span: 102.7
  Best-fit Top: 103.1
SSTR2-WT-2 control of Q102A-2
  Best-fit Bottom: -0.0463
  Best-fit LogEC50: -6.469
SSTR2-WT-2 control of Y50A-2
  Best-fit Bottom: -1.812
  Best-fit LogEC50: -6.566
  Best-fit Span: 107.5
  Best-fit Top: 105.7
SSTR2-WT-3 control of Y50A-3
  Best-fit Bottom: -2.538
  Best-fit LogEC50: -6.515
  Best-fit Span: 108.6
  Best-fit Top: 106.1
SSTR2-WT, run WT-1
  Span (best-fit value): 106.4 and 106.9 and 102.6 and 115.9 and 106
  Top (best-fit value): 107.4 and 107.9 and 101.5 and 113.5 and 105.5
SSTR2-WT, run WT-2
  Span (best-fit value): 106.4 and 103.6 and 103.9 and 102.6 and 106.8
  Top (best-fit value): 107.4 and 106.9 and 102.6 and 101.5 and 107.6
SSTR2-WT, run WT-3
  Span (best-fit value): 112.3 and 105.2 and 106 and 103.9 and 104.9 and 106.4
  Top (best-fit value): 109 and 103.8 and 105.5 and 102.6 and 107.1 and 107.4
SSTR2 WT
  β-arrestin recruitment: lower efficacy of β-arrestin recruitment
SSTR2 WT, listed as Paltusotine
  β-arrestin recruitment: lower β-arrestin recruitment compared with octreotide
WT-1 (D122A set)
  Bottom (best-fit): 1.007
  LogEC50 (best-fit): -6.376
